{"source": "ChEMBL document CHEMBL2062407", "about": "“Synthesis of N²-modified 7-methylguanosine 5'-monophosphates as nematode translation inhibitors” (Bioorg Med Chem, 2012)", "data": [{"tested_on": "Ascaris suum", "assay": "Ratio of m7GTP IC50 to compound IC50 for Ascaris suum eIF4E-3 assessed as inhibition of cap-dependent translation after 1 hr by cell-free Renilla luciferase reporter gene assay", "values": [{"smiles": "COc1ccc(CNc2nc3c(c(=O)[nH]2)[n+](C)cn3[C@@H]2O[C@H](COP(=O)([O-])O)[C@@H](O)[C@H]2O)cc1", "Ratio IC50": 7}]}, {"tested_on": "not listed separately", "assay": "Inhibition of Ascaris suum eIF4E-3 assessed as inhibition of cap-dependent translation after 1 hr by cell-free Renilla luciferase reporter gene assay", "units": {"IC50": "µM"}, "values": [{"smiles": "C[n+]1cn([C@@H]2O[C@H](COP(=O)([O-])O)[C@@H](O)[C@H]2O)c2nc(NCc3ccc([N+](=O)[O-])cc3)[nH]c(=O)c21", "IC50": 12.6}, {"smiles": "CN(Cc1ccccc1)c1nc2c(c(=O)[nH]1)[n+](C)cn2[C@@H]1O[C@H](COP(=O)([O-])O)[C@@H](O)[C@H]1O", "IC50": "> 50"}, {"smiles": "C[n+]1cn([C@@H]2O[C@H](COP(=O)([O-])O)[C@@H](O)[C@H]2O)c2nc(N)[nH]c(=O)c21", "IC50": "> 50"}, {"smiles": "C[n+]1cn([C@@H]2O[C@H](COP(=O)([O-])O)[C@@H](O)[C@H]2O)c2nc(N(Cc3ccccc3)Cc3ccccc3)[nH]c(=O)c21", "IC50": "> 50"}, {"smiles": "CC(C)CN(C)c1nc2c(c(=O)[nH]1)[n+](C)cn2[C@@H]1O[C@H](COP(=O)([O-])O)[C@@H](O)[C@H]1O", "IC50": "> 50"}, {"smiles": "CCCCN(C)c1nc2c(c(=O)[nH]1)[n+](C)cn2[C@@H]1O[C@H](COP(=O)([O-])O)[C@@H](O)[C@H]1O", "IC50": "> 50"}, {"smiles": "C[n+]1cn([C@@H]2O[C@H](COP(=O)([O-])O)[C@@H](O)[C@H]2O)c2nc(NCc3ccc(-c4ccccc4)cc3)[nH]c(=O)c21", "IC50": 4.3}, {"smiles": "CCCCNc1nc2c(c(=O)[nH]1)[n+](C)cn2[C@@H]1O[C@H](COP(=O)([O-])O)[C@@H](O)[C@H]1O", "IC50": 3.9}, {"smiles": "C[n+]1cn([C@@H]2O[C@H](COP(=O)([O-])OP(=O)(O)OP(=O)(O)O)[C@@H](O)[C@H]2O)c2nc(N)[nH]c(=O)c21", "IC50": 6.1}, {"smiles": "C[n+]1cn([C@@H]2O[C@H](COP(=O)([O-])O)[C@@H](O)[C@H]2O)c2nc(NCC3CCCCC3)[nH]c(=O)c21", "IC50": 5.7}, {"smiles": "C[n+]1cn([C@@H]2O[C@H](COP(=O)([O-])O)[C@@H](O)[C@H]2O)c2nc(NCc3ccc(Cl)cc3)[nH]c(=O)c21", "IC50": 3.8}, {"smiles": "CCN(CC)c1nc2c(c(=O)[nH]1)[n+](C)cn2[C@@H]1O[C@H](COP(=O)([O-])O)[C@@H](O)[C@H]1O", "IC50": "> 50"}, {"smiles": "CCN(C)c1nc2c(c(=O)[nH]1)[n+](C)cn2[C@@H]1O[C@H](COP(=O)([O-])O)[C@@H](O)[C@H]1O", "IC50": 13.9}, {"smiles": "C[n+]1cn([C@@H]2O[C@H](COP(=O)([O-])O)[C@@H](O)[C@H]2O)c2nc(NCc3ccccc3)[nH]c(=O)c21", "IC50": 2.9}, {"smiles": "COc1ccc(CNc2nc3c(c(=O)[nH]2)[n+](C)cn3[C@@H]2O[C@H](COP(=O)([O-])O)[C@@H](O)[C@H]2O)cc1", "IC50": 0.9}, {"smiles": "CC(C)CNc1nc2c(c(=O)[nH]1)[n+](C)cn2[C@@H]1O[C@H](COP(=O)([O-])O)[C@@H](O)[C@H]1O", "IC50": 4.5}]}]}
